# Article PMC12728982, “Multichiral Half-Sandwich Ru(II) and Os(II) Anticancer Complexes Containing a Glutathione Synthesis Inhibitor” (Organometallics, 2025)
# Legend:
# [1] = system: intracellular GSH in IGROV-1 cells; experiment: Glutathione colorimetric detection assay; assay type: cell-based, human; conditions: IGROV-1, 50 μM, 24 h; statistical significance not confirmed
# Procedure: This lowering was not observed for Ru-LBSO which is not active in this cell line. Other papers have shown a similar result by including L-BSO as an additional agent, therefore showing L-BSO remains inhibitory.
# Once the agarose had set , the slides were submerged in alkaline lysis solution (1.3 M NaCl, 100 mM Na2EDTA, 0.1% sodium lauryl sarcosinate, 0.26 M NaOH pH > 13) and incubated overnight at 277 K in the dark. The following day the slides were rinsed for 20 min three times in the electrophoresis solution ([…] NaOH, 2mM Na 2EDTA pH 12.3). The slides were then placed into the electrophoresis tank with fresh electrophoresis buffer, 1 -2 mm above the slides. Electrophoresis was run at 18.3 V for 25 min. Once electrophoresis was complete, slides were rinsed in distilled water and placed in 2.5 µg/mL PI for 20 min. After staining, cells were rinsed in distilled water to remove excess stain. Twenty comet images per sample were taken by confocal microscopy and analysed by OpenComet. 10
# 1 x 10^6 IGROV-1 cells were seeded in a 6-well plate and incubated for 24 h at 310 K. All complexes (50 µM and 100 µM) were added to the wells and incubated for 24 h. […]
# (§1) Percentage of IGROV -1 cancer cells in non -apoptotic, apoptotic (early and late) or necrotic phases determined by flow cytometry after 24 h treatment with Os/Ru L -BSO and glycine complexes. […] Standard deviations calculated for N=3. […]
# [2] = Aqueous stability / hydrolysis monitored by 1H NMR; assay type: physicochemical; conditions: 3:7 v/v methanol-d4:D2O, 310 K, 36 h, then excess NaCl (130 mM) 24 h
# [3] = system: IGROV-1 human ovarian cancer cells; experiment: Apoptosis assay, annexin V and PI, flow cytometry; assay type: cell-based; conditions: IGROV-1, 50 or 100 μM, 24 h
# Procedure: Apoptosis assays using annexin V and PI as markers were carried out to investigate possible modes of cell death. For the clinical drug cisplatin, apoptosis is the major mode of cell death. […] Other mechanisms of cell death such as ferroptosis could be investigated in future work. […]
# was aspirated, cells washed in ice-cold PBS and then stained with 0.2 mg/mL RNase, 0.05 mg/mL propidium iodide (PI) in PBS for 25 min in the dark and on ice. Excess dye was removed, and cells were re-suspended in PBS. Samples were analysed by flow cytometry using the BD FACSMelody™ Cell Sorter (R653880001) and data analysis on FlowJo™ v10 Software (BD Life […]
# IGROV-1 cells (1 x 106) were seeded in a 6-well plate and incubated for 24 h at 310 K. Stock solutions (200 µM) of the complexes were prepared by dissolving the compound in 5% (v/v) DMSO followed by dilution with DMEM and then diluted to desired concentrations. All complexes (50 µM and 100 µM) were added to the wells and incubated for 24 h. […] Samples were analysed by flow cytometry using the BD FACSMelody™ Cell Sorter (R653880001) and data analysis on FlowJo™ v10 Software (BD Life Sciences).9 […]
# as §1
substance,measurement,setting,value
[(p-cymene)Os(L-BSO)Cl] [Os-LBSO],Lowering of intracellular GSH level,[1],ca. 50%
same,Hydrolysis,[2],does not readily hydrolyze
same,Apoptosis / mode of cell death vs untreated cells,[3],no significant differences
